System: alkaline phosphatase activity in T47D cells
Experiment: Effects of progestins and antiprogestins on alkaline phosphatase activity in T47D cells (antagonist mode)
Assay type: cell-based
Conditions: Homo sapiens, % inhibition at 30 nM, in the presence of 1 nM progesterone, read-out: T47D Alkaline Phosphatase Activity IC50 (nM) or % inhibition
Protocol: (1) Effects of Progestins and Antiprogestins on Alkaline Phosphatase Activity in T47D Cells
PURPOSE: To identify progestins or antiprogestins by determining a compound's effect on alkaline phosphatase activity in T47D cells.
Culture Medium: • DMEM:F12 (1:1) (GIBCO, BRL) supplemented with 5% (v/v) charcoal stripped fetal bovine serum (not heat-inactivated), 100 U/mL penicillin, 100 μg/mL streptomycin, and 2 mM the GlutaMax™ reagent (GIBCO, BRL).
Alkaline Phosphatase Assay Buffer: • I. 0.1M Tris-HCl, pH 9.8, containing 0.2% the Triton® X-100 reagent • II. 0.1M Tris-HCl, pH 9.8, containing 4 mM p-nitrophenyl phosphate (Sigma). B. Cell Culture and Treatment:
Frozen T47D cells were thawed in a 37° C. water bath and diluted to 280,000 cells/mL in culture medium. To each well in a 96-well plate (Falcon, Becton Dickinson Labware), 180 μL of diluted cell suspension was added.
Twenty μL of reference or test compounds diluted in the culture medium was then added to each well. When testing for progestin antagonist activity, reference antiprogestins or test compounds were added in the presence of 1 nM progesterone. The cells were incubated at 37° C. in a 5% CO2/humidified atmosphere for 24 h.
NOTE: For high throughput screening, one concentration of each compound was tested at 0.3 μg/mL. Based on an average molecular weight of 300 g/mol for the compounds in the library, the concentration was approximately 1 μM. Subsequently, active compounds were tested in dose response assays to determine EC50 and IC50. C. Alkaline Phosphatase Enzyme Assay:
At the end of treatment, the medium was removed from the plate. Fifty μL of assay buffer I was added to each well. The plates were shaken in a titer plate shaker for 15 min. Then 150 μL of assay buffer II was added to each well. Optical density measurements were taken at 5 min intervals for 30 min at a test wavelength of 405 nm.
For reference and test compounds, a dose response curve was generated for dose (X-axis) vs. the rate of enzyme reaction (slope) (Y-axis). Square root-transformed data was used for analysis of variance and nonlinear dose response curve fitting for both agonist and antagonist modes. Huber weighting was used to down-weight the effects of outliers. EC50 or IC50 values were calculated from the retransformed values. JMP software (SAS Institute, Inc.) was used for both one-way analysis of variance and non-linear dose response analysis in both single dose and dose response studies.
Progesterone and trimegestone were reference progestins and RU486 was the reference antiprogestin. All reference compounds were run in full dose response curves and the EC50 and IC50 values were calculated.

| Structure (SMILES) | inhibition at 0.03 µM |
| --- | --- |
| CC1(C)COC(=O)N1c1nc(-c2ccc(Cl)cc2)cs1 [Example 114, 3-[4-(4-Chlorophenyl)-1,3-thiazol-2-yl]-4,4-dimethyl-1,3-oxazolidin-2-one] | 53% |

Same assay, conditions: Homo sapiens, % inhibition at 3000 nM, in the presence of 1 nM progesterone, read-out: T47D Alkaline Phosphatase Activity IC50 (nM) or % inhibition

| Structure (SMILES) | inhibition at 3 µM |
| --- | --- |
| O=C1OC[C@H](COCc2ccccc2)N1c1nc(-c2ccc(Br)cc2)cs1 [Example 91, (4S)-4-[(benzyloxy)methyl]-3-[4-(4-bromophenyl)-1,3-thiazol-2-yl]-1,3-oxazolidin-2-one] | 63% |
| CC1(C)CO/C(=N\S(C)(=O)=O)N1c1nc(-c2ccc(C#N)cc2)cs1 [Example 136, N-{(2Z)-3-[4-(4-Cyanophenyl)-1,3-thiazol-2-yl]-4,4-dimethyl-1,3-oxazolidin-2-ylidene}methanesulfonamide] | 100% |
| CC1(C)COC(=O)N1c1nc(-c2ccc(-c3ccccc3)cc2)cs1 [Example 128, 3-(4-Biphenyl-4-yl-1,3-thiazol-2-yl)-4,4-dimethyl-1,3-oxazolidin-2-one] | 47% |
| CC1(C)COC(=O)N1c1nc(-c2ccc(Oc3ccccc3)cc2)cs1 [Example 127, 4,4-Dimethyl-3-[4-(4-phenoxyphenyl)-1,3-thiazol-2-yl]-1,3-oxazolidin-2-one] | 87% |
| CCS(=O)(=O)c1cccc(-c2csc(N3C(=O)OCC3(C)C)n2)c1 [Example 102, 3-{4-[3-(Ethylsulfonyl)phenyl]-1,3-thiazol-2-yl}-4,4-dimethyl-1,3-oxazolidin-2-one] | 27% |
| CC1(C)COC(=O)N1c1nc(-c2ccc(C#N)cc2)co1 [Example 92, 4-[2-(4,4-dimethyl-2-oxo-1,3-oxazolidin-3-yl)-1,3-oxazol-4-yl]benzonitrile] | 76% |
| CC1(C)COC(=O)N1c1nc(-c2ccoc2)cs1 [Example 104, 3-[4-(3-Furyl)-1,3-thiazol-2-yl]-4,4-dimethyl-1,3-oxazolidin-2-one] | 94% |

Same assay, conditions: Homo sapiens, in the presence of 1 nM progesterone, 24 h, read-out: T47D Alkaline Phosphatase Activity IC50 (nM) or % inhibition

| Structure (SMILES) | IC50 |
| --- | --- |
| CC(C)C1COC(=O)N1c1nc(-c2ccc(C#N)cc2)cs1 (stereo not shown) [Example 43, 4-[2-(4-Isopropyl-2-oxo-1,3-oxazolidin-3-yl)-1,3-thiazol-4-yl]benzonitrile] | 21.9 nM |
| CC1(C)COC(=O)N1c1nc(-c2cccc([N+](=O)[O-])c2)cs1 [Example 124, 4,4-Dimethyl-3-[4-(3-nitrophenyl)-1,3-thiazol-2-yl]-1,3-oxazolidin-2-one] | 59.7 nM |
| CC1(C)COC(=O)N1c1nc(-c2c(F)cc(F)cc2F)cs1 [Example 101, 4,4-Dimethyl-3-[4-(2,4,6-trifluorophenyl)-1,3-thiazol-2-yl]-1,3-oxazolidin-2-one] | 536 nM |
| CC1(C)COC(=O)N1c1nc(-c2ccc(Br)cc2)ns1 [Example 93, 3-[3-(4-Bromophenyl)-1,2,4-thiadiazol-5-yl]-4,4-dimethyl-1,3-oxazolidin-2-one] | 135 nM |
| CC1(C)COC(=O)N1c1nc(-c2ccc3[nH]ccc3c2)cs1 [Example 105, 3-[4-(1H-Indol-5-yl)-1,3-thiazol-2-yl]-4,4-dimethyl-1,3-oxazolidin-2-one] | 110 nM |
| COc1ccccc1-c1csc(N2C(=O)OCC2(C)C)n1 [Example 100, 3-[4-(2-Methoxyphenyl)-1,3-thiazol-2-yl]-4,4-dimethyl-1,3-oxazolidin-2-one] | 854 nM |
| CC(=O)/N=C1\OCC(C)(C)N1c1nc(-c2ccc(C#N)cc2)cs1 [Example 137, N-{(2Z)-3-[4-(4-Cyanophenyl)-1,3-thiazol-2-yl]-4,4-dimethyl-1,3-oxazolidin-2-ylidene}acetamide] | 10.8 nM |
| CC1(C)COC(=O)N1c1nc(-c2ccccc2)cs1 [Example 120, 4,4-Dimethyl-3-(4-phenyl-1,3-thiazol-2-yl)-1,3-oxazolidin-2-one] | 247 nM |
| CC1(C)CN(Cc2ccccc2)C(=O)N1c1nc(-c2ccc(C#N)cc2)cs1 [Example 84, 4-[2-(3-Benzyl-5,5-dimethyl-2-oxoimidazolidin-1-yl)-1,3-thiazol-4-yl]benzonitrile] | 77.9 nM |
| CC1(C)COC(=O)N1c1nc(-c2ccc(C#N)cc2)ns1 [Example 94, 4-[5-(4,4-dimethyl-2-oxo-1,3-oxazolidin-3-yl)-1,2,4-thiadiazol-3-yl]benzonitrile] | 146 nM |
| Cn1cc(-c2csc(N3C(=O)OCC3(C)C)n2)cc1C#N [Example 133, 4-[2-(4,4-Dimethyl-2-oxo-1,3-oxazolidin-3-yl)-1,3-thiazol-4-yl]-1-methyl-1H-pyrrole-2-carbonitrile] | 69.6 nM |
| CC1(C)COC(=O)N1c1nc(-c2ccc(C(N)=NO)cc2)cs1 [Example 85, 4-[2-(4,4-Dimethyl-2-oxo-1,3-oxazolidin-3-yl)-1,3-thiazol-4-yl]-N′-hydroxybenzene carboximidamide] | 729 nM |
| CC1(C)COC(=O)N1c1nc(-c2ccc(OC(F)(F)F)cc2)cs1 [Example 97, 4,4-Dimethyl-3-{4-[4-(trifluoromethoxy)phenyl]-1,3-thiazol-2-yl}-1,3-oxazolidin-2-one] | 285 nM |
| CC1(C)COC(=O)N1c1nc(-c2ccc(Cl)c(Cl)c2)cs1 [Example 119, 3-[4-(3,4-Dichlorophenyl)-1,3-thiazol-2-yl]-4,4-dimethyl-1,3-oxazolidin-2-one] | 48 nM |
| CC1(C)COC(=O)N1c1nc(-c2cccc(C(F)(F)F)c2)cs1 [Example 96, 4,4-Dimethyl-3-{4-[3-(trifluoromethyl)phenyl]-1,3-thiazol-2-yl}-1,3-oxazolidin-2-one] | 328 nM |
| Cc1ccc(-c2csc(N3C(=O)OCC3(C)C)n2)cc1 [Example 121, 4,4-Dimethyl-3-[4-(4-methylphenyl)-1,3-thiazol-2-yl]-1,3-oxazolidin-2-one] | 110 nM |
| COc1ccc(-c2csc(N3C(=O)OCC3(C)C)n2)cc1 [Example 98, 3-[4-(4-Methoxyphenyl)-1,3-thiazol-2-yl]-4,4-dimethyl-1,3-oxazolidin-2-one] | 191 nM |
| CC1(C)COC(=O)N1c1nc(-c2cc(Cl)cc(Cl)c2)cs1 [Example 116, 3-[4-(3,5-Dichlorophenyl)-1,3-thiazol-2-yl]-4,4-dimethyl-1,3-oxazolidin-2-one] | 461 nM |
| Cc1cc(-c2csc(N3C(=O)OCC3(C)C)n2)ccc1F [Example 126, 3-[4-(4-Fluoro-3-methylphenyl)-1,3-thiazol-2-yl]-4,4-dimethyl-1,3-oxazolidin-2-one] | 33.4 nM |
| CCC1(CC)COC(=O)N1c1nc2c(s1)CCc1cc(C#N)ccc1-2 [Example 86, 2-(4,4-Diethyl-2-oxo-1,3-oxazolidin-3-yl)-4,5-dihydronaphtho[1,2-d][1,3]thiazole-7-carbonitrile] | 5 nM |
| N#Cc1ccc(-c2csc(N3CCOC3=O)c2)cc1 [Example 112, 4-[5-(2-Oxo-1,3-oxazolidin-3-yl)-3-thienyl]benzonitrile] | 480 nM |
| CC1(C)COC(=O)N1c1nc(-c2ccc(CC#N)cc2)cs1 [Example 103, {4-[2-(4,4-Dimethyl-2-oxo-1,3-oxazolidin-3-yl)-1,3-thiazol-4-yl]phenyl}acetonitrile] | 262 nM |
| CC1(C)COC(=O)N1c1nc(-c2ccc(F)cc2)cs1 [Example 115, 3-[4-(4-Fluorophenyl)-1,3-thiazol-2-yl]-4,4-dimethyl-1,3-oxazolidin-2-one] | 72.2 nM |
| CC1(C)COC(=O)N1c1nc(-c2ccc3ccccc3c2)cs1 [Example 122, 4,4-Dimethyl-3-[4-(2-naphthyl)-1,3-thiazol-2-yl]-1,3-oxazolidin-2-one] | 557 nM |
| COC(=O)c1ccc(-c2csc(N3C(=O)OCC3(C)C)n2)cc1 [Example 129, Methyl 4-[2-(4,4-dimethyl-2-oxo-1,3-oxazolidin-3-yl)-1,3-thiazol-4-yl]benzoate] | 20.3 nM |
| Cn1cc(C#N)cc1-c1csc(N2C(=O)OCC2(C)C)n1 [Example 134, 5-[2-(4,4-Dimethyl-2-oxo-1,3-oxazolidin-3-yl)-1,3-thiazol-4-yl]-1-methyl-1H-pyrrole-3-carbonitrile] | 284 nM |
| CN1CC(C)(C)N(c2nc(-c3ccc(C#N)cc3)cs2)C1=O [Example 83, 4-[2-(3,5,5-Trimethyl-2-oxoimidazolidin-1-yl)-1,3-thiazol-4-yl]benzonitrile] | 35.4 nM |
| O=C1OCCN1c1nc(-c2ccc(Cl)cc2)cs1 [Example 131, 3-[4-(4-Chlorophenyl)-1,3-thiazol-2-yl]-1,3-oxazolidin-2-one] | 41.1 nM |

System: not given
Experiment: not given
Conditions: not given

| Structure (SMILES) | melting point |
| --- | --- |
| CC(C)C1COC(=O)N1c1nc(-c2ccc(C#N)cc2)cs1 (stereo not shown) [Example 43, 4-[2-(4-Isopropyl-2-oxo-1,3-oxazolidin-3-yl)-1,3-thiazol-4-yl]benzonitrile] | 126 to 128 °C |
